Laboratory results from patent US20250353852A1, “COMPOUNDS AND COMPOSITIONS THAT INHIBIT PIKFYVE” (Kineta, Inc., priority 2021, published 2025).

Test system: U2OS cells
Test: EEA1 assay (endosomal vesicle enlargement as surrogate readout of PIKFyve inhibition)
Assay type: cell-based
Settings: 3 hours of treatment, class symbols
Method: EEA1 Assay. Genetic or pharmacological disruption of PIKfyve activity results in enlargement of endosomal vesicles. This enlargement was utilized as a surrogate readout of PIKFyve inhibition for routine triage of PIKfyve inhibitors. U2OS cells grown in 96-well assay plates were treated with compound diluted in DMEM media containing 10% fetal bovine serum. After 3 hours of treatment, cells were fixed with paraformaldehyde, permeabilized with 0.2% Triton-X in phosphate buffered saline and stained against EEA1. During the secondary antibody staining, cells were also stained with CellMask DeepRed and Hoechst to detect cytoplasms and nuclei respectively. Endosomal structures were visualized using a high content imager at 40× magnification. Images were analyzed using a linear classifier algorithm integrating EEA1 spot size, intensity and texture trained on images of cells treated with the potent reference compound APY0201. Compound activity was calculated by subtracting the DMSO signal and calculating percentage activity relative to maximal APY0201 activity. IC50s were then calculated from concentration vs. % inhibition data by logistic regression.

`COc1nn(-c2cc(N3CCOCC3)n3nccc3n2)cc1-c1ccccc1` [Compound 77, 4-(5-(3-methoxy-4-phenyl-1H-pyrazol-1-yl)pyrazolo[1,5-a]pyrimidin-7-yl)morpholine] showed an IC50 of 1 to 10 µM.

Same assay, conditions: Homo sapiens, 3 hours of treatment, class symbols

`c1ccc(-c2nccc(-c3cc(N4CCOCC4)n4nc(C5CCCO5)cc4n3)n2)cc1` (stereo not drawn) [Compound 97, 4-(5-(2-phenylpyrimidin-4-yl)-2-(tetrahydrofuran-2-yl)pyrazolo[1,5-a]pyrimidin-7-yl)morpholine] and `Oc1cc(-c2ccccc2)nn1-c1cc(N2CCOCC2)n2nc(-c3ccncc3)cc2n1` [Compound 51, 1-(7-morpholino-2-(pyridin-4-yl)pyrazolo[1,5-a]pyrimidin-5-yl)-3-phenyl-1H-pyrazol-5-ol] fall in the same range of IC50: 1 to 10 µM for the first, 1 to 10 µM for the second.

First: Cc1cccc(-c2ccn(-c3cc(N4CCOCC4)n4nc(CCC(=O)N(C)C)cc4n3)n2)c1 [Compound 149, N,N-dimethyl-3-(7-morpholino-5-(3-(m-tolyl)-1H-pyrazol-1-yl)pyrazolo[1,5-a]pyrimidin-2-yl)propanamide]
Second: Cc1cccc(-c2ccn(-c3cc(N4CCOCC4)n4nc(C(O)CO)cc4n3)n2)c1 (stereo not drawn) [Compound 150, 1-(7-morpholino-5-(3-(m-tolyl)-1H-pyrazol-1-yl)pyrazolo[1,5-a]pyrimidin-2-yl)ethane-1,2-diol]
The IC50 of the first is lower: 0.1 to 1 µM for the first, 1 to 10 µM for the second.

`Cc1cccc(-c2ccn(-c3cc(N4CCOCC4)n4nc(C5CCN(C)C(=O)C5)cc4n3)n2)c1` (stereo not drawn) [Compound 151, 1-methyl-4-(7-morpholino-5-(3-(m-tolyl)-1H-pyrazol-1-yl)pyrazolo[1,5-a]pyrimidin-2-yl)piperidin-2-one] and `Cc1cccc(-c2ccn(-c3cc(N4CCOCC4)n4nccc4n3)n2)c1` [Compound 78, 4-(5-(3-(m-tolyl)-1H-pyrazol-1-yl)pyrazolo[1,5-a]pyrimidin-7-yl)morpholine] fall in the same range of IC50: 1 to 10 µM for the first, 1 to 10 µM for the second.

Compared with `Cc1cccc(-c2ccn(-c3cc(N4CCOCC4)n4nc(-c5ccncc5)cc4n3)n2)c1` [Compound 65, 4-(2-(pyridin-4-yl)-5-(3-(m-tolyl)-1H-pyrazol-1-yl)pyrazolo[1,5-a]pyrimidin-7-yl)morpholine], `Cn1ccc(-c2cccc(-c3cc(N4CCOCC4)n4nc(-c5ccncc5)cc4n3)c2)n1` [Compound 142, 4-(5-(3-(1-methyl-1H-pyrazol-3-yl)phenyl)-2-(pyridin-4-yl)pyrazolo[1,5-a]pyrimidin-7-yl)morpholine] is higher in IC50: 0.1 to 1 µM for the first, 1 to 10 µM for the second.

`Cn1ccc(-c2cccc(-c3cc(N4CCOCC4)n4nc(N5CCC(O)CC5)cc4n3)c2)n1` [Compound 152, 1-(5-(3-(1-methyl-1H-pyrazol-3-yl)phenyl)-7-morpholinopyrazolo[1,5-a]pyrimidin-2-yl)piperidin-4-ol] and `COc1nn(-c2cc(N3CCOCC3)n3nc(C(O)CO)cc3n2)cc1-c1ccccc1` (stereo not drawn) [Compound 145, 1-(5-(3-methoxy-4-phenyl-1H-pyrazol-1-yl)-7-morpholinopyrazolo[1,5-a]pyrimidin-2-yl)ethane-1,2-diol] fall in the same range of IC50: 1 to 10 µM for the first, 1 to 10 µM for the second.

Same assay, conditions: Homo sapiens, 3 hours of treatment, numeric values

Work on `COc1nn(-c2cc(N3CCOCC3)n3nc(-c4ccncc4)cc3n2)cc1-c1ccccc1` [Compound 66, 4-(5-(3-methoxy-4-phenyl-1H-pyrazol-1-yl)-2-(pyridin-4-yl)pyrazolo[1,5-a]pyrimidin-7-yl)morpholine] yielded an IC50 greater than 3 µM.

Target: full-length human PIKFYVE (Homo sapiens (Human), UniProt Q9Y2I7, L932S/Q1183K/Q995L/S1033A/S696N/T998S)
Test: PIKfyve biochemical assay (ADP-Glo Kinase assay, Carna Biosciences)
Settings: class symbols
Method in brief: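 N-terminal GST-fused full-length PIKFYVE from baculovirus, incubated with compound, substrate and ATP in 50 mM MOPS, 1 mM DTT, pH7.2 for 1 hour at room temperature. ADP formed detected by ADP-Glo luminescence; IC50 from four-parameter logistic fit of % inhibition.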

full-length human PIKFYVE, sequence (Q9Y2I7 whole entry S696N/L932S/Q995L/T998S/S1033A/Q1183K): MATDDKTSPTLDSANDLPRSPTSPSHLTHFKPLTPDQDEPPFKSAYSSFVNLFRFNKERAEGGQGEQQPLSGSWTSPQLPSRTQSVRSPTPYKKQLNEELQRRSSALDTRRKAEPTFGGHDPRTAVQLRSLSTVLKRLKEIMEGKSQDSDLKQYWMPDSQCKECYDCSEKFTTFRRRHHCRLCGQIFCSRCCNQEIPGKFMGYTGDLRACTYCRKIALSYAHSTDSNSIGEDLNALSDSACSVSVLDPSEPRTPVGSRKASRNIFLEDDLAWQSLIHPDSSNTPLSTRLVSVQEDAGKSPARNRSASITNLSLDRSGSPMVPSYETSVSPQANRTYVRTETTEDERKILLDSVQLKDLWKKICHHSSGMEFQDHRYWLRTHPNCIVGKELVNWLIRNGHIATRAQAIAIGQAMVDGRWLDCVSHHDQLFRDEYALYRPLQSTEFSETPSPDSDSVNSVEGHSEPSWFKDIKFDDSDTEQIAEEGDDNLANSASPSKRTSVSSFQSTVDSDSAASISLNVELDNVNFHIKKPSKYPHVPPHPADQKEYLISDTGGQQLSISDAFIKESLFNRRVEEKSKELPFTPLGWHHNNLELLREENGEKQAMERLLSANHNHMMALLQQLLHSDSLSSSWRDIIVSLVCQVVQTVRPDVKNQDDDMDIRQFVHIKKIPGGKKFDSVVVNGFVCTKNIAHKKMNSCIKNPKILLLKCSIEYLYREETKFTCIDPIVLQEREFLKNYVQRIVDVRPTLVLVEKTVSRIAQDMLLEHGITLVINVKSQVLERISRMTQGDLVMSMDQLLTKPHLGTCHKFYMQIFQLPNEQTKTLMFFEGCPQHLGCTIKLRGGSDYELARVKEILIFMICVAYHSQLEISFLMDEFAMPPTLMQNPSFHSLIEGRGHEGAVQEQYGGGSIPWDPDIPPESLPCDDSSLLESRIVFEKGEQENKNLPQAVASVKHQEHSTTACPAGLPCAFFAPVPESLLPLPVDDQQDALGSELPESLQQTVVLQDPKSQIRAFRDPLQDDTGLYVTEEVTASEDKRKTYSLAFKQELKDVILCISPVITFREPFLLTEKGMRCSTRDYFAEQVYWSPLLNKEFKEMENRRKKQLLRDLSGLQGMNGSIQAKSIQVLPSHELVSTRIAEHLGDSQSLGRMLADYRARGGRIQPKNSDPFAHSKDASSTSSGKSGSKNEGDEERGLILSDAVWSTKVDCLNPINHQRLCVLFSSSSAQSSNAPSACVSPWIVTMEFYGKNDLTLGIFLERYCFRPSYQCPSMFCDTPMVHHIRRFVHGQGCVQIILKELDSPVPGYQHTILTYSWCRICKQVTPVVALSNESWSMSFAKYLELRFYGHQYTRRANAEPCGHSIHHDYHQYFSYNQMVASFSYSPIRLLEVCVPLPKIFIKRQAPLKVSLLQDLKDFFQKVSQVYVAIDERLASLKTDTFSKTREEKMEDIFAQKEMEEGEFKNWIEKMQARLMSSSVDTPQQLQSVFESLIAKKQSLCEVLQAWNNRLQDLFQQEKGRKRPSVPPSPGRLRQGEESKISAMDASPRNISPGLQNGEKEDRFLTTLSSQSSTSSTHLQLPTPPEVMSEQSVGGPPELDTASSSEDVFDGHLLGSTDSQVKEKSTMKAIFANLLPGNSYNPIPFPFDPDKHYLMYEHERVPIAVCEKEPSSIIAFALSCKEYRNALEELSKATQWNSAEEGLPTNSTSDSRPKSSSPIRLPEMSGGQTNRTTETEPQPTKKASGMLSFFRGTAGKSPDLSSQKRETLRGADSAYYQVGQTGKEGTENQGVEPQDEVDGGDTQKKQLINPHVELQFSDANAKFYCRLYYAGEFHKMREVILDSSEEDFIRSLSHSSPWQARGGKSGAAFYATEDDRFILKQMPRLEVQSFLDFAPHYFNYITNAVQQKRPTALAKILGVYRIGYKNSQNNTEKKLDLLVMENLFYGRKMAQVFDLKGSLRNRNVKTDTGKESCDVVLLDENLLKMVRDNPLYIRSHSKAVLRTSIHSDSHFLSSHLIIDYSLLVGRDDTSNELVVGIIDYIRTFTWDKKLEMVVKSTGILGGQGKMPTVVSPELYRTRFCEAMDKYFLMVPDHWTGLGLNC

`c1ccc(-c2nccc(-c3cc(N4CCOCC4)n4nc(C5CCCO5)cc4n3)n2)cc1` (stereo not drawn) [Compound 97, 4-(5-(2-phenylpyrimidin-4-yl)-2-(tetrahydrofuran-2-yl)pyrazolo[1,5-a]pyrimidin-7-yl)morpholine] and `c1ccc(-c2nsc(-c3cc(N4CCOCC4)n4nc(-c5ccncc5)cc4n3)n2)cc1` [Compound 127, 4-(5-(3-phenyl-1,2,4-thiadiazol-5-yl)-2-(pyridin-4-yl)pyrazolo[1,5-a]pyrimidin-7-yl)morpholine] fall in the same range of IC50: 0.01 to 0.1 µM for the first, 0.01 to 0.1 µM for the second.

`COc1nn(-c2cc(N3CCOCC3)n3nccc3n2)cc1-c1ccccc1` [Compound 77, 4-(5-(3-methoxy-4-phenyl-1H-pyrazol-1-yl)pyrazolo[1,5-a]pyrimidin-7-yl)morpholine] and `COc1nn(-c2cc(N3CCOCC3)n3nc(-c4ccncc4)cc3n2)cc1-c1ccccc1` [Compound 66, 4-(5-(3-methoxy-4-phenyl-1H-pyrazol-1-yl)-2-(pyridin-4-yl)pyrazolo[1,5-a]pyrimidin-7-yl)morpholine] cannot be ordered by IC50: greater than 10 µM for the first, greater than 10 µM for the second.

First: Oc1cc(-c2ccccc2)nn1-c1cc(N2CCOCC2)n2nc(-c3ccncc3)cc2n1 [Compound 51, 1-(7-morpholino-2-(pyridin-4-yl)pyrazolo[1,5-a]pyrimidin-5-yl)-3-phenyl-1H-pyrazol-5-ol]
Second: Cc1cccc(-c2ccn(-c3cc(N4CCOCC4)n4nc(-c5ccncc5)cc4n3)n2)c1 [Compound 65, 4-(2-(pyridin-4-yl)-5-(3-(m-tolyl)-1H-pyrazol-1-yl)pyrazolo[1,5-a]pyrimidin-7-yl)morpholine]
The IC50 of the first is lower: less than 0.01 µM for the first, 0.01 to 0.1 µM for the second. The first is the more potent here.

First: Cn1ccc(-c2cccc(-c3cc(N4CCOCC4)n4nc(-c5ccncc5)cc4n3)c2)n1 [Compound 142, 4-(5-(3-(1-methyl-1H-pyrazol-3-yl)phenyl)-2-(pyridin-4-yl)pyrazolo[1,5-a]pyrimidin-7-yl)morpholine]
Second: Fc1cc(N2CCOCC2)n2nc(-c3ccncc3)cc2n1 [Compound 29, 4-(5-fluoro-2-(pyridin-4-yl)pyrazolo[1,5-a]pyrimidin-7-yl)morpholine]
The IC50 of the first is lower: 0.01 to 0.1 µM for the first, 0.1 to 1 µM for the second. The first is the more potent here.

`CC(C)(C)OC(=O)NC(=N)c1cc(N2CCOCC2)n2nc(-c3ccncc3)cc2n1` [Compound 115, tert-butyl imino(7-morpholino-2-(pyridin-4-yl)pyrazolo[1,5-a]pyrimidin-5-yl)methylcarbamate] and `CC(C)c1cc(O)n(-c2cc(N3CCOCC3)n3nc(-c4ccncc4)cc3n2)n1` [Compound 54, 3-isopropyl-1-(7-morpholino-2-(pyridin-4-yl)pyrazolo[1,5-a]pyrimidin-5-yl)-1H-pyrazol-5-ol] fall in the same range of IC50: 0.1 to 1 µM for the first, 0.1 to 1 µM for the second.

`CN1CC(c2cc(N3CCOCC3)n3nc(-c4ccncc4)cc3n2)CC1c1ccccc1` (stereo not drawn) [Compound 19, 4-(5-(1-methyl-5-phenylpyrrolidin-3-yl)-2-(pyridin-4-yl)pyrazolo[1,5-a]pyrimidin-7-yl)morpholine] and `CN1CCCC(c2cn(-c3cc(N4CCOCC4)n4nc(-c5ccncc5)cc4n3)cn2)C1` (stereo not drawn) [Compound 18, 4-(5-(4-(1-methylpiperidin-3-yl)-1H-imidazol-1-yl)-2-(pyridin-4-yl)pyrazolo[1,5-a]pyrimidin-7-yl)morpholine] fall in the same range of IC50: 1 to 10 µM for the first, 1 to 10 µM for the second.

First: c1nn(-c2cc(N3CCOCC3)n3nc(C4CCCO4)cc3n2)c2c1COCC2 (stereo not drawn) [Compound 100, 1-(7-morpholino-2-(tetrahydrofuran-2-yl)pyrazolo[1,5-a]pyrimidin-5-yl)-1,4,6,7-tetrahydropyrano[4,3-c]pyrazole]
Second: COCCc1ccn(-c2cc(N3CCOCC3)n3nc(-c4ccncc4)cc3n2)n1 [Compound 81, 4-(5-(3-(2-methoxyethyl)-1H-pyrazol-1-yl)-2-(pyridin-4-yl)pyrazolo[1,5-a]pyrimidin-7-yl)morpholine]
The IC50 of the first is higher: greater than 10 µM for the first, 0.1 to 1 µM for the second.

In the case of `CNC(COc1cc(N2CCOCC2)n2nc(-c3ccncc3)cc2n1)c1cccc(C)c1` (stereo not drawn) [Compound 126, N-methyl-2-((7-morpholino-2-(pyridin-4-yl)pyrazolo[1,5-a]pyrimidin-5-yl)oxy)-1-(m-tolyl)ethan-1-amine], the IC50 is reported as 1 to 10 µM.

Test system: PIKFYVE TDP-43 yeast strain
Test: Propidium iodide viability assay, PIKFYVE TDP-43 yeast strain
Assay type: cell-based
Settings: Saccharomyces cerevisiae; PIKFYVE TDP-43 yeast strain, values plotted in FIG. 7
Method: Generation of TDP-43 yeast model expressing human PIKfyve. Human PIKFYVE (“entry clone”) was cloned into […] (“destination vector”) according to standard Gateway cloning protocols (Invitrogen, Life Technologies). The resulting pAG416GPD-PIKFYVE plasmids were amplified in E. coli and plasmid identity confirmed by restriction digest and Sanger sequencing. […]+) (FIG. 2). Transformed yeast were plated on solid agar plates with complete synthetic media lacking uracil (CSM-ura) and containing 2% glucose. Individual colonies harboring the control or PIKFYVE TDP-43 plasmids were recovered. A plasmid containing wild-type TDP-43 under the transcriptional control of the GAL1 promoter and containing the […] as a selectable marker was transformed into the […]-PIKFYVE yeast strain (FIG. 1). Transformed yeast were plated on CSM-ura containing 2% glucose and 200 μg/mL G418 after overnight recovery in media lacking antibiotic. Multiple independent isolates were further evaluated for cytotoxicity and TDP-43 expression levels. Viability Assay. A control yeast strain with the wild-type yeast FAB1 gene and TDP-43 (“FAB1 TDP-43”, carries empty pAG416 plasmid), and the “PIKFYVE TDP-43” yeast strain, were assessed for toxicity using a propidium iodide viability assay. Both yeast strains were transferred from solid CSM-ura/2% glucose agar plates into 3 mL of liquid CSM-ura/2% glucose media for 6-8 hours at 30° C. with aeration. Yeast cultures were then diluted to an optical density at 600 nm wavelength (OD600) of 0.005 in 3 mL of CSM-ura/2% raffinose and grown overnight at 30° C. with aeration to an OD600 of 0.3-0.8. Log-phase overnight cultures were diluted to OD600 of 0.005 in CSM-ura containing either 2% raffinose or galactose and 150 μL dispensed into each well of a flat bottom 96-well plates. Compounds formulated in 100% dimethyl sulfoxide (DMSO) were serially diluted in DMSO and 1.5 μL diluted compound transferred to the 96-well plates using a multichannel pipet. Wells containing DMSO alone were also evaluated as controls for compound effects. Tested concentrations ranged from 15 μM to 0.11 μM. Cultures were immediately mixed to ensure compound distribution and covered plates incubated at 30° C. for 24 hours in a stationary, humified incubator. Upon the completion of incubation, cultures were assayed for viability using propidium iodide (PI) to stain for dead/dying cells. A working solution of PI was made where, for each plate, 1 μL of 10 mM PI was added to 10 mL of CSM-ura (raffinose or galactose). […] The overnight 96-well assay plate was then mixed with a multichannel pipet and 50 μL transferred to the PI-containing plate. This plate was then incubated for 30 minutes at 30° C. in the dark. A benchtop flow cytometer (Miltenyi MACSquant) was then used to assess red fluorescence (B2 channel), forward scatter, and side scatter (with following settings: gentle mix, high flow rate, fast measurement, 10,000 events). Intensity histograms were then gated for “PI-positive” or “PI-negative” using the raffinose and galactose cultures treated with DMSO as controls. The DMSO controls for raffinose or galactose-containing cultures were used to determine the window of increased cell death and this difference set to 100. All compounds were similarly gated and then compared to this maximal window to establish the percent reduction in PI-positive cells.

Compared with `Oc1cc(C2CCOCC2)nn1-c1cc(N2CCOCC2)n2nc(-c3ccncc3)cc2n1` [drawing 345], `Oc1cc(-c2ccccc2)nn1-c1cc(N2CCOCC2)n2nc(-c3ccncc3)nc2n1` is 13-fold lower in IC50: 9.11 µM for the first, 0.693 µM for the second.

`Fc1cccc(-c2ccnn2-c2nc(N3CCOCC3)c3ncccc3n2)c1` and `Cc1cccc(/C=N/Nc2nc(N3CCOCC3)c3ncccc3n2)c1` are within 1.5-fold of each other in IC50: 5.75 µM for the first, 8.21 µM for the second.

Going from `c1ccc(-c2ccnc(-c3cc(N4CCOCC4)nc(OCc4ccncc4)n3)n2)cc1` to `c1ccc(-c2cccc(-c3cc(N4CCOCC4)n4nc(-c5ccncc5)cc4n3)n2)cc1`, the IC50 falls from 1.45 µM to 0.23 µM (6.3-fold). The second is the more potent here.

First: c1ccc(N2CCc3c(OCc4cccnc4)nc(N4CCOCC4)nc32)cc1
Second: Cc1cccc(/C=N/Nc2nc(N3CCOCC3)c3nc(-c4ccncc4)n(C)c3n2)c1 [drawing 343]
The IC50 of the first is 1.8-fold lower: 2.69 µM for the first, 4.72 µM for the second.

`Cc1cccc(/C=N/Nc2cc(N3CCOCC3)nc(OCCc3ccc(CN)cc3)n2)c1` was tested, and the IC50 was 1.12 µM.
